In ChEMBL document CHEMBL3045763, “Synthesis and evaluation of anti-proliferative activity of 1,4-disubstituted phthalazines” (Med Chem Res, 2012):

Tested on: MCF7
Experiment: Antiproliferative activity against Homo sapiens (human) MCF7 cells after 72 hr by SRB assay
Type: functional, cell-based
Conditions: MCF7, 72 h

Structure (SMILES) | IC50
Brc1ccc(-c2nnc(Nc3nccs3)c3ccccc23)cc1 | 1.4 µM
Brc1ccc(-c2nnc(N3CCOCC3)c3ccccc23)cc1 | 1.9 µM
Brc1ccc(-c2nnc(Sc3nc4ccccc4s3)c3ccccc23)cc1 | 2.3 µM
Clc1cccc(Cl)c1Nc1nnc(-c2ccc(Br)cc2)c2ccccc12 | 1.7 µM
CN1CCN(c2nnc(-c3ccc(Br)cc3)c3ccccc23)CC1 | 1.5 µM
Brc1ccc(-c2nnc(N3CCN(c4ccccc4)CC3)c3ccccc23)cc1 | 9.7 µM
COc1ccccc1N1CCN(c2nnc(-c3ccc(Br)cc3)c3ccccc23)CC1 | 8.6 µM
COc1ccc(N2CCN(c3nnc(-c4ccc(Br)cc4)c4ccccc34)CC2)cc1 | 17.5 µM
Brc1ccc(-c2nnc(N(Cc3ccccc3)Cc3ccccc3)c3ccccc23)cc1 | 4.8 µM
Clc1ncccc1Nc1nnc(-c2ccc(Br)cc2)c2ccccc12 | 1.7 µM
Brc1ccc(-c2nnc(N3CCCCC3)c3ccccc23)cc1 | 9.1 µM
CCOc1ccccc1N1CCN(c2nnc(-c3ccc(Br)cc3)c3ccccc23)CC1 | 4.77 µM
